Measured values published in patent US11548903B2, “Bicyclic thiazine and oxazine derivatives as beta-secretase inhibitors and methods of use” (AMGEN INC., priority 2016, dated 2023).
Read-outs that look alike come from different tables or passages of the source.

How the values were obtained:
Recombinant CatD = Recombinant CatD (Homo sapiens (Human), UniProt P07339); test: In vitro enzymatic Cathepsin D (CatD) FRET assay; type: biochemical; conditions: read-out: Cat D Enzyme IC50
Method: In Vitro Enzymatic Cathepsin D (CatD) FRET Assay Recombinant CatD was expressed in CHO cells. The assay buffer for CatD was 0.05 M citrate pH 3.5, 10% DMSO final, 5 mM CHAPS. […] The assays was effectively started by the addition of different FRET substrates (20 nM for CatD) and the combination was incubated for one hour. The FRET assay was terminated with by addition of tris buffer, which raises the pH to neutrality, and the fluorescence was determined. The FRET substrate was a peptide with commercially available fluorophore and quencher, on opposite sides of the CatD cleavage site. The CatD substrate peptide sequence was based on sequence #1 of Table 1 from Gulnik et al., FEBS Lett. 413(2):379-384 (1997). Proteolytic cleavage of the FRET substrate released quenching of fluorescence (CatD excitation 500 nm and emission 580 nm). The in vitro CatD FRET assay data for each of the Examples is provided in Table 2, conducted by the first procedure described above. […] Thus, with this surprising selectivity profile, the compounds provided herein are believed to minimize, reduce or completely eliminate any risk of retinal atrophy and abnormal development of the eye and of the retinal pigmented epithelium as it relates to the normal function and activity of CatD.

human recombinant BACE2 = human recombinant BACE2 (Homo sapiens (Human), UniProt Q9Y5Z0); test: In vitro enzymatic BACE2 FRET assay; type: biochemical; conditions: read-out: BACE2 Enzyme IC50
human recombinant BACE2, sequence (Q9Y5Z0 63-518): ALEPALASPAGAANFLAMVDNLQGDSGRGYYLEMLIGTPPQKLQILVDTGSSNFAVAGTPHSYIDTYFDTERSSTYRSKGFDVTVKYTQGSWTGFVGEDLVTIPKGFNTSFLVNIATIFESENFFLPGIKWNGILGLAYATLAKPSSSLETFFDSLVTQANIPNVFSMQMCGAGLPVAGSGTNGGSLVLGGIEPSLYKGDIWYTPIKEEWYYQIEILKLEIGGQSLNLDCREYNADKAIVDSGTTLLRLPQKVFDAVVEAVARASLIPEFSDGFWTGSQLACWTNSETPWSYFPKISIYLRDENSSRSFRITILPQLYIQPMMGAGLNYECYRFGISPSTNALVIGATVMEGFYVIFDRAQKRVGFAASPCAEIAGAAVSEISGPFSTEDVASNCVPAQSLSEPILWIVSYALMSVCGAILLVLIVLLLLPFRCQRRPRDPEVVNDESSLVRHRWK
Method: (§1) In Vitro Enzymatic BACE1 and BACE2 FRET (Fluorescence Resonance Energy Transfer) Assays […] These recombinant proteins were further purified using Ni-NTA affinity chromatography (Qiagen). […] The assay was effectively started by the addition of FRET substrate (50 nM) and the combination was incubated for one hour. The FRET assay was terminated by the addition of tris buffer, which raised the pH to neutrality, and the fluorescence was determined. The FRET substrate was a peptide with commercially available fluorophore and quencher, on opposite sides of the BACE cleavage site. The specific FRET substrate used in this assay was made by Amgen in-house. Commercially available FRET substrates, for example, the FRET substrate offered with the BACE1 FRET Assay Kit sold by ThermoFisher Scientific (Catalog Number P2985), may be used in this assay with the appropriate modifications, which are within the purview of the ability of a person with ordinary skill in the art. Proteolytic cleavage of the FRET substrate released quenching of fluorescence (excitation 488 nm and emission 590 nm).

human recombinant BACE1 = human recombinant BACE1 (Homo sapiens (Human), UniProt P56817); test: In vitro enzymatic BACE1 FRET assay; type: biochemical; conditions: read-out: BACE1 Enzyme IC50
human recombinant BACE1, sequence (P56817 46-501): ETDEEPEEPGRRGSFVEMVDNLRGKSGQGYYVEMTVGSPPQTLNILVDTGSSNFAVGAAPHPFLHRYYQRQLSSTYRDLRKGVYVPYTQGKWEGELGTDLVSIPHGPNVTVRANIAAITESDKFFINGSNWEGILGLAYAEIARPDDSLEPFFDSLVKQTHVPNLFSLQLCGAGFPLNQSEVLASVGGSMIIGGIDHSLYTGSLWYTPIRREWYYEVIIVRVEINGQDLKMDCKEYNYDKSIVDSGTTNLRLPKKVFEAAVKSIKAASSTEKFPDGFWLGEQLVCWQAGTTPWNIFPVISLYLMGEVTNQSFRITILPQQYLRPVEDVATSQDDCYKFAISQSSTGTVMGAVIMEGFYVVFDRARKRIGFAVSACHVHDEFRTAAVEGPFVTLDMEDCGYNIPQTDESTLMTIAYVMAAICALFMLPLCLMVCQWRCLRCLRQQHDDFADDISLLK
Method: as §1

[1] = tested on: BACE1 (Aβ40 from cells stably expressing Amyloid Precursor Protein); test: In vitro BACE1 cell-based assay (Aβ40 in conditioned medium, HTRF)
Method: In Vitro BACE1 Cell-Based Assay The cell-based assay measures inhibition or reduction of Aβ40 in conditioned medium of test compound treated cells expressing amyloid precursor protein. Cells stably expressing Amyloid Precursor Protein (APP) were plated at a density of 45K cells/well in 384 well plates (Corning/BioCoat 354663). The test compounds were then added to cells in 22-point dose response concentrations with the starting concentration being 62.5 μM. The compounds were diluted from stock solutions in DMSO and the final DMSO concentration of the test compounds on cells was 0.625%. The cells were cultivated overnight at 37° C. and 5% CO2 in DMEM supplemented with 10% FBS. After 24 h of incubation with the test compounds, the conditioned media was collected and the Aβ40 levels were determined using HTRF (Homogeneous Time Resolved Fluorescence). […] The HTRF to detect Aβ40 was performed in 384 well plates (Costar 3658). The antibody pair that were used to detect Aβ 40 from cell supernatants were ConfAb40 antibody (Amgen in-house) and biotinylated 6E10 (BIOLEGEND). As an alternative to ConfAb40, a commercially available antibody, Anti-beta Amyloid 1-40 antibody [BDI350] from Abcam, Cambridge, Mass. 02139-1517 (Product code: ab20068), may be used in this assay. […] The conditioned media was incubated with above antibodies and Streptavidin Allophycocyanin Conjugate for 30-60 minutes at 23° C. The final readout was performed on Envision from PerkinElmer.

[2] = Aβ40, 24 h incubation, read-out: BACE1 Cell IC50

Recombinant CatD, sequence (P07339 65-412): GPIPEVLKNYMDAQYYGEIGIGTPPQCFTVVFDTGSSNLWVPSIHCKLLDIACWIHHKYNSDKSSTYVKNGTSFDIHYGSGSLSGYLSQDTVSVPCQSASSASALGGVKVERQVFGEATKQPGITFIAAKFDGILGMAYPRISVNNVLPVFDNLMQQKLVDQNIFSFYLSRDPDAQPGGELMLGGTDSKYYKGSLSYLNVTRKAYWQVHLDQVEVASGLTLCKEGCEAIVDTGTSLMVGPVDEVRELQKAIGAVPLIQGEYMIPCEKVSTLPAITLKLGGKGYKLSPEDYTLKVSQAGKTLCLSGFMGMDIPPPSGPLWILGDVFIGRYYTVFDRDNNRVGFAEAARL

Structure (SMILES)	IC50 (Recombinant CatD) [nM]	IC50 (human recombinant BACE2) [nM]	IC50 (human recombinant BACE1) [nM]	IC50 [1, 2] [µM]	IC50 ([1]; 24 h, read-out: BACE1 Cell IC50 (μM)) [µM]
CC#CCOc1cnc(/C(F)=C/c2ccc(F)c([C@]34CN(c5ncc(F)cn5)C[C@H]3CSC(N)=N4)c2)cn1 [Example 117, (4aR,7aS)-7a-(5-((Z)-2-(5-(but-2-yn-1-yloxy)pyrazin-2-yl)-2-fluorovinyl)-2-fluorophenyl)-6-(5-fluoropyrimidin-2-yl)-4,4a,5,6,7,7a-hexahydropyrrolo[3,4-d][1,3]thiazin-2-amine]	13200	2.79	0.286	0.00038	–
N#Cc1ccc(/C(F)=C/c2ccc(F)c([C@@]34CO[C@@H](C(F)F)[C@@H]3CSC(N)=N4)c2)nc1 [Example 145, 6-((Z)-2-(3-((4aR,5R,7aR)-2-Amino-5-(difluoromethyl)-4a,5-dihydro-4H-furo[3,4-d][1,3]thiazin-7a(7H)-yl)-4-fluorophenyl)-1-fluorovinyl)nicotinonitrile]	> 400000	1400	48.5	0.041	–
N#Cc1ccc(/C(F)=C/c2ccc(F)c([C@]34COC[C@H]3CSC(N)=N4)c2)nc1 [Example 107, 6-((Z)-2-(3-((4aS,7aS)-2-amino-4a,5,7,7a-tetrahydro-4H-furo[3,4-d][1,3]thiazin-7a-yl)-4-fluorophenyl)-1-fluorovinyl)nicotinonitrile]	> 400000	279	11.7	0.041	–
C#CCOc1cnc(/C(F)=C/c2ccc(F)c([C@]34CN(c5ncccn5)C[C@H]3CSC(N)=N4)c2)cn1 [Example 120, (4aR,7aS)-7a-(2-fluoro-5-((Z)-2-fluoro-2-(5-(prop-2-yn-1-yloxy)pyrazin-2-yl)vinyl)phenyl)-6-(pyrimidin-2-yl)-4,4a,5,6,7,7a-hexahydropyrrolo[3,4-d][1,3]thiazin-2-amine]	6300	34	0.186	0.00076	–
N#Cc1cnc(/C(F)=C/c2ccc(F)c([C@]34CN(c5ncc(F)cn5)C[C@H]3CSC(N)=N4)c2)cn1 [Example 111, 5-((Z)-2-(3-((4aR,7aS)-2-amino-6-(5-fluoropyrimidin-2-yl)-4,4a,5,6,7,7a-hexahydropyrrolo[3,4-d][1,3]thiazin-7a-yl)-4-fluorophenyl)-1-fluorovinyl)pyrazine-2-carbonitrile]	19600	5.18	0.32	0.000807	–
N#Cc1ccc(/C(F)=C/c2ccc(F)c([C@@]34CO[C@@H](CF)[C@@H]3CSC(N)=N4)c2)nc1 [Example 133, 6-((Z)-2-(3-((4aR,5R,7aR)-2-amino-5-(fluoromethyl)-4a,5,7,7a-tetrahydro-4H-furo[3,4-d][1,3]thiazin-7a-yl)-4-fluorophenyl)-1-fluorovinyl)nicotinonitrile]	139000	28000	1220	2	–
C#C[C@H](C)Oc1cnc(/C(F)=C/c2ccc(F)c([C@]34CN(c5ncc(F)cn5)C[C@H]3CSC(N)=N4)c2)cn1 [Example 115, (4aR,7aS)-7a-(5-((Z)-2-(5-((S)-but-3-yn-2-yloxy)pyrazin-2-yl)-2-fluorovinyl)-2-fluorophenyl)-6-(5-fluoropyrimidin-2-yl)-4,4a,5,6,7,7a-hexahydropyrrolo[3,4-d][1,3]thiazin-2-amine]	18900	15.3	1.01	0.000542	–
C#CCOc1cnc(/C(F)=C/c2ccc(F)c([C@]34CN(c5ncc(F)cn5)C[C@H]3CSC(N)=N4)c2)cn1 (stereo in doubt) [Example 109, (4aR,7aS)-7a-(2-fluoro-5-((Z)-2-fluoro-2-(5-(prop-2-yn-1-yloxy)pyrazin-2-yl)vinyl)phenyl)-6-(5-fluoropyrimidin-2-yl)-4,4a,5,6,7,7a-hexahydropyrrolo[3,4-d][1,3]thiazin-2-amine]	7600	5.49	0.149	0.000311	–
N#Cc1ccc(/C(F)=C/c2ccc(F)c([C@@]34CO[C@@H](C(F)(F)F)[C@@H]3COC(N)=N4)c2)nc1 (racemic) [Example 141, 6-((Z)-2-(3-((4aR,5S,7aS)-2-amino-5-(trifluoromethyl)-4a,5,7,7a-tetrahydro-4H-furo[3,4-d][1,3]oxazin-7a-yl)-4-fluorophenyl)-1-fluorovinyl)nicotinonitrile and 6-((Z)-2-(3-((4aS,5R,7aR)-2-amino-5-(trifluoromethyl)-4a,5,7,7a-tetrahydro-4H-furo[3,4-d][1,3]oxazin-7a-yl)-4-fluorophenyl)-1-fluorovinyl)nicotinonitrile]	237000	9720	86.2	0.161	–
C#CCOc1cnc(/C(F)=C/c2ccc(F)c([C@]34CN(C(=O)OCC)C[C@H]3CSC(N)=N4)c2)cn1 [Example 123, (4aR,7aS)-ethyl 2-amino-7a-(2-fluoro-5-((Z)-2-fluoro-2-(5-(prop-2-yn-1-yloxy)pyrazin-2-yl)vinyl)phenyl)-4a,5,7,7a-tetrahydropyrrolo[3,4-d][1,3]thiazine-6(4H)-carboxylate]	36500	214	4.5	–	0.00478
NC1=N[C@]2(c3cc(/C=C(\F)c4ccc(Cl)cn4)ccc3F)COC[C@@H]2CS1 [Example 104, (4aR,7aR)-7a-(5-((Z)-2-(5-chloropyridin-2-yl)-2-fluorovinyl)-2-fluorophenyl)-4a,5,7,7a-tetrahydro-4H-furo[3,4-d][1,3]thiazin-2-amine]	654000	7480	804	2.26	–
Cc1cc(C#N)cnc1/C(F)=C/c1ccc(F)c([C@]23CO[C@H](C(F)(F)F)[C@H]2CSC(N)=N3)c1 [Example 138, 6-((Z)-2-(3-((4aS,5S,7aS)-2-amino-5-(trifluoromethyl)-4a,5,7,7a-tetrahydro-4H-furo[3,4-d][1,3]thiazin-7a-yl)-4-fluorophenyl)-1-fluorovinyl)-5-methylnicotinonitrile]	> 400000	1140	27.2	0.116	–
N#Cc1ccc(/C(F)=C/c2ccc(F)c([C@@]34COC[C@@H]3CSC(N)=N4)c2)nc1 [Example 106, 6-((Z)-2-(3-((4aR,7aR)-2-amino-4a,5,7,7a-tetrahydro-4H-furo[3,4-d][1,3]thiazin-7a-yl)-4-fluorophenyl)-1-fluorovinyl)nicotinonitrile]	815000	6390	502	0.985	–
COC[C@H](C)Oc1cnc(/C(F)=C/c2ccc(F)c([C@]34CN(c5ncc(F)cn5)C[C@H]3CSC(N)=N4)c2)cn1 [Example 114, (4aR,7aS)-7a-(2-fluoro-5-((Z)-2-fluoro-2-(5-(((S)-1-methoxypropan-2-yl)oxy)pyrazin-2-yl)vinyl)phenyl)-6-(5-fluoropyrimidin-2-yl)-4,4a,5,6,7,7a-hexahydropyrrolo[3,4-d][1,3]thiazin-2-amine]	38700	30.6	8.96	0.00257	–
N#Cc1ccc(/C(F)=C/c2ccc(F)c([C@@]34CO[C@@H](C(F)(F)F)[C@@H]3COC(N)=N4)c2)nc1 (single isomer, unassigned) [Example 143]	95600	140000	9010	53.5	–
